Assay results taken from BindingDB's records for doi:10.1021/jm00024a010 (Boehringer Ingelheim Pharmaceuticals, 1995).

Experiments:
[1] = biological target: T1, Gag-Pol polyprotein [600-1027,R876K]/[600-1155] (Human immunodeficiency virus 1, UniProt P03366, R876K); experiment: HIV-1 RT Assay
T1 construct: 600-1027; 600-1155

[2] = biological target: T2, Gag-Pol polyprotein [600-1027,Y780C]/[600-1155,Y780C] (Human immunodeficiency virus 1, UniProt P03366, Y780C); experiment: HIV-1 RT Assay
T2 construct: 600-1027; 600-1155

SMILES | IC50 [1] [nM] | IC50 [2] [nM] | further results
CCN1c2ncccc2C(=O)N(C)c2cccnc21 |  |  | IC50 ([1]; pH 7.8, 25 °C): 130 nM
CCC=Nc1ccc2c(n1)N(CC)c1ncccc1C(=O)N2C | 390 | > 1000 | 
CCN1c2ncccc2C(=O)Nc2c(C)cc(C)nc21 [2-ethyl-5,7-dimethyl-2,4,9,15-tetraazatricyclo[9.4.0.0^{3,8}]pentadeca-1(11),3,5,7,12,14-hexaen-10-one] |  |  | IC50 ([2]; pH 7.8, 25 °C): > 1000 nM
CCN1c2ncccc2C(=O)N(C)c2ccc(-c3cccc(O)c3)nc21 [2-ethyl-5-(3-hydroxyphenyl)-9-methyl-2,4,9,15-tetraazatricyclo[9.4.0.0^{3,8}]pentadeca-1(11),3,5,7,12,14-hexaen-10-one] | 100 |  | 
CCN1c2ncccc2C(=O)Nc2c(C)cc(N(C)CCO)nc21 [2-ethyl-5-[(2-hydroxyethyl)(methyl)amino]-7-methyl-2,4,9,15-tetraazatricyclo[9.4.0.0^{3,8}]pentadeca-1(11),3,5,7,12,14-hexaen-10-one] |  | > 1000 | 
CCN1c2ncccc2C(=O)Nc2c(C)cc(NCCO)nc21 [2-ethyl-5-[(2-hydroxyethyl)amino]-7-methyl-2,4,9,15-tetraazatricyclo[9.4.0.0^{3,8}]pentadeca-1(11),3,5,7,12,14-hexaen-10-one] |  | > 1000 | 
CCN1c2ncccc2C(=O)Nc2c(C)cc(NCCCO)nc21 [2-ethyl-5-[(3-hydroxypropyl)amino]-7-methyl-2,4,9,15-tetraazatricyclo[9.4.0.0^{3,8}]pentadeca-1(11),3,5,7,12,14-hexaen-10-one] |  | > 1000 | 
CCN1c2ncccc2C(=O)N(C)c2ccc(=O)[nH]c21 [2-ethyl-5-hydroxy-9-methyl-2,4,9,15-tetraazatricyclo[9.4.0.0^{3,8}]pentadeca-1(11),3,5,7,12,14-hexaen-10-one] |  | > 1000 | 
CCN1c2ncccc2C(=O)Nc2c(C)cc(SC)nc21 [2-ethyl-7-methyl-5-(methylsulfanyl)-2,4,9,15-tetraazatricyclo[9.4.0.0^{3,8}]pentadeca-1(11),3,5,7,12,14-hexaen-10-one] |  | > 1000 | 
CCN1c2ncccc2C(=O)Nc2c(C)cc(C(C)C)nc21 [2-ethyl-7-methyl-5-(propan-2-yl)-2,4,9,15-tetraazatricyclo[9.4.0.0^{3,8}]pentadeca-1(11),3,5,7,12,14-hexaen-10-one] |  |  | IC50 ([2]; pH 7.8, 25 °C): > 1000 nM
CCN1c2ncccc2C(=O)Nc2c(C)cc(N3CCSCC3)nc21 [2-ethyl-7-methyl-5-(thiomorpholin-4-yl)-2,4,9,15-tetraazatricyclo[9.4.0.0^{3,8}]pentadeca-1(11),3,5,7,12,14-hexaen-10-one] |  | > 1000 | 
CCN1c2ncccc2C(=O)N(C)c2ccc(-c3ncco3)nc21 [2-ethyl-9-methyl-5-(1,3-oxazol-2-yl)-2,4,9,15-tetraazatricyclo[9.4.0.0^{3,8}]pentadeca-1(11),3,5,7,12,14-hexaen-10-one] | 110 | 560 | 
CCN1c2ncccc2C(=O)N(C)c2ccc(-c3cnco3)nc21 [2-ethyl-9-methyl-5-(1,3-oxazol-5-yl)-2,4,9,15-tetraazatricyclo[9.4.0.0^{3,8}]pentadeca-1(11),3,5,7,12,14-hexaen-10-one] | 220 | 820 | 
CCN1c2ncccc2C(=O)N(C)c2ccc(-c3cncs3)nc21 [2-ethyl-9-methyl-5-(1,3-thiazol-5-yl)-2,4,9,15-tetraazatricyclo[9.4.0.0^{3,8}]pentadeca-1(11),3,5,7,12,14-hexaen-10-one] | 100 | 240 | 
CCN1c2ncccc2C(=O)N(C)c2ccc(N3CCCCC3)nc21 [2-ethyl-9-methyl-5-(piperidin-1-yl)-2,4,9,15-tetraazatricyclo[9.4.0.0^{3,8}]pentadeca-1(11),3,5,7,12,14-hexaen-10-one] |  | > 1000 | 
CCN1c2ncccc2C(=O)N(C)c2ccc(-c3ccccn3)nc21 [2-ethyl-9-methyl-5-(pyridin-2-yl)-2,4,9,15-tetraazatricyclo[9.4.0.0^{3,8}]pentadeca-1(11),3,5,7,12,14-hexaen-10-one] | 180 |  | 
CCN1c2ncccc2C(=O)N(C)c2ccc(-c3ccsc3)nc21 [2-ethyl-9-methyl-5-(thiophen-3-yl)-2,4,9,15-tetraazatricyclo[9.4.0.0^{3,8}]pentadeca-1(11),3,5,7,12,14-hexaen-10-one] | 100 |  | 
CCN1c2ncccc2C(=O)N(C)c2ccc(-c3nccs3)nc21 [5,11-dihydro-11-ethyl-5-methyl-2-(2-thiazolyl)-6H-dipyrido[3,2-b:2 ,3-e][1,4]diazepin-6-one] | 380 | 1100 | 
CCN1c2ncccc2C(=O)N(C)c2ccc(-c3cccc(N)c3)nc21 [5,11-dihydro-11-ethyl-5-methyl-2-(3-aminophenyl)-6H-dipyrido[3,2-b:2 ,3-e][1,4]diazepin-6-one] | 70 |  | 
CCN1c2ncccc2C(=O)N(C)c2ccc(N)nc21 [5-amino-2-ethyl-9-methyl-2,4,9,15-tetraazatricyclo[9.4.0.0^{3,8}]pentadeca-1(11),3,5,7,12,14-hexaen-10-one] | > 1000 | > 1000 | 
CN1C(=O)c2cccnc2N(C2CC2)c2nc(Cl)ccc21 [5-chloro-2-cyclopropyl-9-methyl-2,4,9,15-tetraazatricyclo[9.4.0.0^{3,8}]pentadeca-1(11),3,5,7,12,14-hexaen-10-one] |  |  | IC50 ([1]; pH 7.8, 25 °C): 90 nM
CCN1c2ncccc2C(=O)Nc2c(C)cc(C(C)(C)C)nc21 [5-tert-butyl-2-ethyl-7-methyl-2,4,9,15-tetraazatricyclo[9.4.0.0^{3,8}]pentadeca-1(11),3,5,7,12,14-hexaen-10-one] |  |  | IC50 ([1]; pH 7.8, 25 °C): > 1000 nM; IC50 ([2]; pH 7.8, 25 °C): > 1000 nM
